According to patent publication US11286263B2, “Macrocyclic fluorine substituted indole derivatives” (The Broad Institute, Inc., priority 2017, dated 2022):
Read-outs that look alike come from different tables or passages of the source.

Key:
BCL-XL = BCL-XL (Homo sapiens (Human), UniProt Q07817); test: Protein-protein interaction assay BCL-XL/Bad BH3 peptide (BCL-XL assay), TR-FRET; type: binding; conditions: median
Procedure: Assay 2 Protein-Protein Interaction Assay: BCL-XL/Bad BH3 Peptide (BCL-XL Assay)
The dose-dependent inhibition by the compounds described in this invention of the interaction between BCL-XL and the BH3 domain of Bad (both human) was determined using a steady state binding competition assay with time-resolved fluorescence energy transfer (TR-FRET) readout. For that purpose BCL-XL (amino acids 1-212, C-terminal fused to a hexahistidine (6× His) tag (SEQ ID 3) and a synthetic Bad BH3-derived peptide of sequence Biotin-PEG2-PEG2-NLWAAQRYGRELRR-Nle-SDEFVDSFKK-amide (SEQ ID 4) served as protein receptor and tracer ligand respectively. The recombinant BCL-XL protein (expressed in Ecol) was purchased from BPS Bioscience (San Diego, Calif., USA). The Bad BH3-derived peptide can be obtained from e.g. Biosyntan (Berlin, Germany).
In the assay 11 different concentrations of each compound (0.1 nM, 0.33 nM, 1.1 nM, 3.8 nM, 13 nM, 44 nM, 0.15 μM, 0.51 μM, 1.7 μM, 5.9 μM and 20 μM) were typically measured as duplicates in the same microtiter plate. For that, 100-fold concentrated DMSO solutions were prepared by serial dilutions (1:3.4) of a 2 mM stock solution in a clear, 384-well microtiter plate (Greiner Bio-One, Frickenhausen, Germany). From there, 50 nl were transferred in a dark test plate (Greiner Bio-One, Frickenhausen, Germany). The assay was initiated by addition of 2 μl of a 2,5-fold concentrated His-BCL-XL solution (usually for a 1 nM end concentration in 5 μl reaction volume) in aqueous assay buffer [50 mM Tris/HCl pH 7, 100 mM sodium chloride (NaCl), 50 μM potassium fluoride (KF), 0.005% Tween-20, 2 mM DTT, 0.1% bovine gamma globulin (BGG)] to the compounds in the assay plate. This was followed by a 10-minute incubation step at 22° C. for pre-equilibration of the putative complex between His-BCL-XL and the compounds. After that, 3 μl of a 1.67-fold concentrated solution (in assay buffer) consisting of Bad BH3-derived peptide (1 nM end concentration) and TR-FRET detection reagents [1.67 nM anti-His-Eu cryptate and 1.67 nM streptavidin-XL665 (both from Cisbio Bioassays, Codolet, France)], were added.
The mixture was incubated in the dark for one hour at 22° C. and then overnight at 4° C. The formation of BCL-XL/Bad complexes was determined by measuring the resonance energy transfer of the anti-His-Eu-cryptate antibody to the streptavidin-XL665 present in the reaction. For that purpose, the fluorescence emission at 620 nm and 665 nm after excitation at 330-350 nm was measured in a TR-FRET measuring instrument, for instance a Rubystar or a Pherastar (both from BMG Lab Technologies, Offenburg, Germany) or a Viewlux (Perkin-Elmer). The ratio of the emission at 665 nm and at 622 nm was used as indicator of the amount of BCL-XL/Bad complexes present.
The resulting data (ratio) were normalized, taking 0% inhibition as the mean value of control measurements (usually 32 data points) where all reagents were included. In this case 50 nl DMSO were used instead of compounds. A 100% inhibition corresponded to the mean value of control measurements (usually 32 data points) where all reagents except BCL-XL were included. IC50 values were determined by regression analysis based on a 4 parameter equation (minimum, maximum, IC50, Hill; Y=Max+(Min−Max)/(1+(X/IC50)^Hill) using the Screener Software (Genedata).

SUDHL10 [1] = test: Induction of caspase-3/7 activity, SUDHL10 (Assay 4); type: cell-based; conditions: SUDHL10 cells
Summary of the method: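 DLBCL lines treated with compounds for 3 h at 37° C.; caspase-3/7 activity read by Caspase-Glo 3/7 luminescence. Medium-only background subtracted; EC50 fitted with bottom fixed at 1 and top set to reference compound's maximal induction.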

SUDHL5 = test: Antiproliferation assay SUDHL5 (Assay 7); type: cell-based; conditions: SUDHL5 cells, CellTiter-Glo, median, read-out: IC50 Antiproli SUDHL5 [M] (median)
Summary of the method: (§1)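 Cells plated in treatment plates plus a day 0 reference plate; incubated 72 h at 37 °C; CellTiter-Glo added, 10 min incubation, luminescence read; day 0 plate read at time zero.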

AMO-1 = test: Antiproliferation assay AMO-1 (Assay 7); type: cell-based; conditions: AMO-1 cells, CellTiter-Glo, single determinations, read-out: IC50 Antiproli AMO-1
Summary of the method: as §1

SUDHL10 [2] = test: Induction of cytotoxicity, SUDHL10 (Assay 6); conditions: read-out: IC50 Cytotox SUDHL10 [M] (median), SUDHL10 cells, 5 h, CellTiter-Glo
Procedure: In principle, compounds that induce apoptosis will concomitantly induce cell cytotoxicity. Therefore, cytotoxicity assays were run in parallel in SUDHL5 and SUDHL10 cells.
The different cell lines were plated in culture medium (RPMI 1640 [GIBCO #22400-089] supplemented with 10% Fetal Bovine Serum) at a density of 3,300 cells in 30 μl/well in a sterile, solid black, flat bottom, polystyrene, TC-treated 384-well microplate (Corning #3571) using Multidrop Combi Reagent Dispenser. As a control, medium without cells was also added to the plate. Cells were incubated in a humidified incubator at 37° C. overnight. On the next day, the cells were treated with compounds (stock solution, 10 mM in DMSO) using the HP D300 Digital Dispenser in a concentration range of 3.3×10e-5 M (33 μM) to 5×10e-9 M (5 nM) in a single-dot curve with at least 16 dilutions and a DMSO concentration of 0.33%. Rim wells were excluded. The cells were incubated for 5 h hours in a humidified incubator at 37° C. After this incubation, 30 μl of CellTiter-Glo® Luminescent Cell Viability reagent (Promega, G7573) was added to each well using the Multidrop Combi Reagent Dispenser, followed by 15 min incubation on a shaker at room temperature. Finally, luminescence was read at 0.1 ms, with a gain of 3000 using the PHERAstar FS microplate reader (BMG Labtech).
The Bella DRC Master Sheet was used to calculate IC50s, with fixed CI=0 and C0=1.

Sequence of BCL-XL (Q07817 1-212): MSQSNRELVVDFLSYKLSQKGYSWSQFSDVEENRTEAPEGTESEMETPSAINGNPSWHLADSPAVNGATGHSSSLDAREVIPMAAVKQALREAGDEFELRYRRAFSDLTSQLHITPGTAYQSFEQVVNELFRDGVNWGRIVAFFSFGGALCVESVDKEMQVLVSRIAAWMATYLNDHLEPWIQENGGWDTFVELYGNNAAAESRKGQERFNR

| IC50 (BCL-XL) [nM] | EC50 (SUDHL10 [1]; Homo sapiens, SU-DHL10, 3 h, Caspase-Glo 3/7, median) [nM] | IC50 (SUDHL5; Homo sapiens, SU-DHL-5, 72 h) [M] | SMILES | IC50 (AMO-1; 72 h) [nM] | IC50 (AMO-1; Homo sapiens, AMO1, 72 h) [nM] | IC50 (SUDHL10 [2]; Homo sapiens, SU-DHL10, 5 h) [M] | EC50 (SUDHL10 [1]; 3 h, Caspase-Glo 3/7, median) [nM] | IC50 (SUDHL5; 72 h) [M] | IC50 (SUDHL10 [2]) [M] |
| --- | --- | --- | --- | --- | --- | --- | --- | --- | --- |
| > 20000 | 2600 | 8.5e-07 | Cc1nn(C)c2c1-c1c(F)ccc3c(CCCOc4cccc5cc(F)ccc45)c(C(=O)O)n(c13)CCCCOC2 (racemic) [Example 32, (rac)-13-fluoro-1-(3-((6-fluoronaphthalen-1-yl)oxy)propyl)-10,12-dimethyl-4,5,6,7,9,10-hexahydropyrazolo[4′,3′:9,10][1]oxa[6]azacycloundecino[8,7,6-hi]indole-2-carboxylic acid] | 4270 | 3980 | 2e-06 |  |  |  |
| > 20000 |  |  | Cc1c2c(nn1C)COCCCCn1c(C(=O)O)c(CCCOc3ccc(F)c4ccccc34)c3ccc(F)c-2c31 (single isomer, unassigned; enantiomer 1) [Example 16, 4-fluoro-7-{3-[(4-fluoronaphthalen-1-yl)oxy]propyl}-2,3-dimethyl-2,10,11,12,13,15-hexahydro-pyrazolo[4′,3′:9,10][1,6]oxazacycloundecino[8,7,6-hi]indole-8-carboxylic acid (enantiomer 1)] | 6950 |  |  | 4100 | 9.3e-07 | 4.3e-06 |

| SMILES | IC50 (BCL-XL) [nM] | EC50 (SUDHL10 [1]; Homo sapiens, SU-DHL10, 3 h, Caspase-Glo 3/7, median) [nM] | IC50 (SUDHL5; Homo sapiens, SU-DHL-5, 72 h) [M] | IC50 (AMO-1; 72 h) [nM] | IC50 (AMO-1; Homo sapiens, AMO1, 72 h) [nM] | IC50 (SUDHL10 [2]; Homo sapiens, SU-DHL10, 5 h) [M] | EC50 (SUDHL10 [1]; 3 h, Caspase-Glo 3/7, median) [nM] | IC50 (SUDHL5; 72 h) [M] | IC50 (SUDHL10 [2]) [M] |
| --- | --- | --- | --- | --- | --- | --- | --- | --- | --- |
| Cc1c2c(nn1C)CNCCCCn1c(C(=O)O)c(CCCOc3cccc4ccccc34)c3ccc(F)c-2c31 (single isomer, unassigned; enantiomer 1) [Example 48, 4-fluoro-2,3-dimethyl-7-{3-[(naphthalen-1-yl)oxy]propyl}-10,11,12,13,14,15-hexahydro-2H-pyrazolo[3′,4′:8,9][1,6]diazacycloundecino[10,11,1-hi]indole-8-carboxylic acid (enantiomer 1)] | > 20000 |  |  | 2860 |  |  | 2100 | 1.4e-06 | 1.9e-06 |
